Measurements reported in patent publication US20210094954A1, “PREPARATION METHODS AND APPLICATIONS OF 3,5-DISUBSTITUTED METHYLPYRAZOLO[1,5-A]PYRIMIDINE-7-HYDROXYLIC SALTS” (priority 2019, published 2021).
Read-outs that look alike come from different tables or passages of the source.

Key:
[1] = system: Staphylococcus aureus 43300 (MRSA); assay: antibacterial study in vivo, survival of infected kunming mice; conditions: for Survival days: 30 days of observation
[2] = system: Bacillus subtilis 168; assay: microbe, parasite or virus in culture; assay type: cell-based; conditions: Bacillus subtilis, 168; 37° C., 24 hours; read-out: MIC values of in vitro antibacterial test results
[3] = system: Streptococcus pneumoniae 10351; assay: microbe, parasite or virus in culture; assay type: cell-based; conditions: Streptococcus pneumoniae, 10351; 37° C., 24 hours; read-out: MIC values of in vitro antibacterial test results
[4] = system: Streptococcus pneumoniae M2; assay: microbe, parasite or virus in culture; assay type: cell-based; conditions: Streptococcus pneumoniae, M2; 37° C., 24 hours; read-out: MIC values of in vitro antibacterial test results
[5] = system: Enterococcus faecalis 29212; assay: microbe, parasite or virus in culture; assay type: cell-based; conditions: Enterococcus faecalis, 29212; 37° C., 24 hours; read-out: MIC values of in vitro antibacterial test results
[6] = system: Bacillus cereus 2; assay: microbe, parasite or virus in culture; assay type: cell-based; conditions: Bacillus cereus, 2; 37° C., 24 hours; read-out: MIC values of in vitro antibacterial test results
[7] = system: F2518(VRE), Staphylococcus aureus resistant strain 43300(MRSA), 703 (MRSA), pneumococcal resistance bacteria 6303(PRSP); assay: microbe, parasite or virus in culture; assay type: cell-based; conditions: read-out: MIC values (μM)
[8] = system: Streptococcus pneumoniae 6303 (PRSP); assay: microbe, parasite or virus in culture; assay type: cell-based; conditions: Streptococcus pneumoniae, PRSP, 24 h, read-out: MIC values of in vitro antibacterial test results
[9] = system: Clostridium perfringens; assay: microbe, parasite or virus in culture; assay type: cell-based; conditions: Clostridium perfringens, 24 h, read-out: MIC values of in vitro antibacterial test results
[10] = system: Staphylococcus aureus 29231; assay: microbe, parasite or virus in culture; assay type: cell-based; conditions: Staphylococcus aureus, 29231; 37° C., 24 hours; read-out: MIC values of in vitro antibacterial test results
[11] = system: Staphylococcus aureus 703(MRSA); assay: microbe, parasite or virus in culture; assay type: cell-based; conditions: Staphylococcus aureus, MRSA
[12] = system: Staphylococcus aureus 43300(MRSA); assay: microbe, parasite or virus in culture; assay type: cell-based; conditions: Staphylococcus aureus, MRSA
[13] = system: Peel fungus; assay: organism not typed; assay type: cell-based; conditions: 37° C., 24 hours; read-out: MIC values of in vitro antibacterial test results
[14] = system: Diphtheria bacilli; assay: organism not typed; assay type: cell-based; conditions: 37° C., 24 hours; read-out: MIC values of in vitro antibacterial test results
[15] = system: Streptococcus agalactia B group; assay: microbe, parasite or virus in culture; assay type: cell-based; conditions: Streptococcus; 37° C., 24 hours; read-out: MIC values of in vitro antibacterial test results
[16] = system: Bacillus anthracis Bacillus 1; assay: microbe, parasite or virus in culture; assay type: cell-based; conditions: Bacillus anthracis, 24 h, read-out: MIC values of in vitro antibacterial test results
[17] = system: Oral Candida; assay: microbe, parasite or virus in culture; assay type: cell-based; conditions: Candida
[18] = system: Enterococcus faecalis F2518(VRE); assay: microbe, parasite or virus in culture; assay type: cell-based; conditions: Enterococcus faecalis, VRE, 24 h, read-out: MIC values of in vitro antibacterial test results
[19] = 24 h, read-out: MIC values of in vitro antibacterial test results
[20] = 37° C., 24 hours, read-out: MIC values of in vitro antibacterial test results

Compound	MIC [2]	MIC [3]	MIC [4]	MIC [5]	MIC [6]	MIC [7]	MIC [8]	Survival days ([1]; dosage 30 mg/kg)	MIC [9]	MIC [10]	MIC [11, 19]	MIC [12, 19]	MIC [13]	MIC [14]	MIC [15]	MIC [16]	MIC [17, 20]	MIC [18]	MIC ([17]; read-out: MIC values (μM))	other results
O=C(O)c1cn(C2CC2)c2cc(N3CCNCC3)c(F)cc2c1=O [Ciprofloxacin, reference compound]	–	–	–	–	–	–	–	–	–	–	–	–	–	–	–	–	–	–	–	Survival days ([1]; dosage 20 mg/kg): 3.4 days; Life extension rate (%) ([1]; dosage 20 mg/kg, versus blank group): 161.5%
Cc1nn2c([O-])cc(-c3ccc([N+](=O)[O-])cc3)nc2c1-c1ccc(F)cc1F.[Na+] [Compound 3, Sodium 3-(2,4-difluorophenyl)-2-methyl-5-(4-nitrophenyl) pyrazolo[1,5-α]pyrimidin-7-olate]	< 100 µg/mL	< 100 µg/mL	< 100 µg/mL	< 100 µg/mL	< 100 µg/mL	< 100 µg/mL	< 100 µg/mL	4.0 days	> 150 µg/mL	< 100 µg/mL	< 50 µg/mL	< 50 µg/mL	> 150 µg/mL	> 150 µg/mL	> 150 µg/mL	> 150 µg/mL	> 150 µg/mL	< 150 µg/mL	–	MIC ([11]; read-out: MIC values (μM)): < 50 µg/mL; MIC ([12]; read-out: MIC values (μM)): < 50 µg/mL
Cc1nn2c([O-])cc(-c3ccc(N(C)C)cc3)nc2c1-c1ccc(F)cc1F.[Na+] [Compound 5, Sodium 3-(2,4-difluorophenyl)-5-(4-(dimethylamino)phenyl)-2-methylpyrazolo[1,5-α]pyrimidin-7-olate]	> 150 µg/mL	> 150 µg/mL	< 100 µg/mL	< 150 µg/mL	< 150 µg/mL	–	> 150 µg/mL	2.6 days	> 150 µg/mL	> 150 µg/mL	< 150 µg/mL	< 150 µg/mL	< 150 µg/mL	> 150 µg/mL	> 150 µg/mL	> 150 µg/mL	< 100 µg/mL	< 150 µg/mL	< 100 µg/mL	–
Cc1nn2c([O-])cc(-c3ccc([N+](=O)[O-])cc3)nc2c1-c1ccc(F)cc1F.[K+] [Compound 23, Potassium 3-(2,4-difluorophenyl)-2-methyl-5-(4-nitrophenyl)pyrazolo[1,5-α]pyrimidin-7-olate]	> 150 µg/mL	> 150 µg/mL	< 100 µg/mL	< 150 µg/mL	< 100 µg/mL	< 100 µg/mL	> 150 µg/mL	–	> 150 µg/mL	> 150 µg/mL	< 150 µg/mL	< 100 µg/mL	< 150 µg/mL	> 150 µg/mL	> 150 µg/mL	> 150 µg/mL	< 100 µg/mL	< 150 µg/mL	< 100 µg/mL	–
Cc1nn2c([O-])cc(-c3ccc(N(C)C)cc3)nc2c1-c1ccc(F)cc1F.[K+] [Compound 24, Potassium 3-(2,4-difluorophenyl)-5-(4-(dimethylamino)phenyl)-2-methylpyrazolo[1,5-α]pyrimidin-7-olate]	< 100 µg/mL	< 100 µg/mL	< 100 µg/mL	< 100 µg/mL	< 100 µg/mL	< 100 µg/mL	< 150 µg/mL	–	< 150 µg/mL	< 100 µg/mL	< 100 µg/mL	< 150 µg/mL	< 150 µg/mL	> 150 µg/mL	> 150 µg/mL	> 150 µg/mL	< 100 µg/mL	< 150 µg/mL	< 100 µg/mL	–
Cc1nn2c([O-])cc(-c3ccc(S(N)(=O)=O)cc3)nc2c1-c1ccc(F)cc1F.[K+] [Compound 25, Potassium 3-(2,4-difluorophenyl)-2-methyl-5-(4-sulfamoylphenyl)pyrazolo[1,5-α]pyrimidin-7-olate]	> 150 µg/mL	> 150 µg/mL	< 100 µg/mL	< 150 µg/mL	< 150 µg/mL	< 100 µg/mL	> 150 µg/mL	–	> 150 µg/mL	> 150 µg/mL	< 150 µg/mL	< 150 µg/mL	< 150 µg/mL	> 150 µg/mL	> 150 µg/mL	> 150 µg/mL	< 100 µg/mL	< 150 µg/mL	< 100 µg/mL	–
